Experimental findings from patent publication US11492341B2, “ACLY inhibitors and uses thereof” (Nimbus Artemis, Inc., priority 2018, dated 2022) are described below.

Sequence of ACL (P53396 whole entry, species assumed): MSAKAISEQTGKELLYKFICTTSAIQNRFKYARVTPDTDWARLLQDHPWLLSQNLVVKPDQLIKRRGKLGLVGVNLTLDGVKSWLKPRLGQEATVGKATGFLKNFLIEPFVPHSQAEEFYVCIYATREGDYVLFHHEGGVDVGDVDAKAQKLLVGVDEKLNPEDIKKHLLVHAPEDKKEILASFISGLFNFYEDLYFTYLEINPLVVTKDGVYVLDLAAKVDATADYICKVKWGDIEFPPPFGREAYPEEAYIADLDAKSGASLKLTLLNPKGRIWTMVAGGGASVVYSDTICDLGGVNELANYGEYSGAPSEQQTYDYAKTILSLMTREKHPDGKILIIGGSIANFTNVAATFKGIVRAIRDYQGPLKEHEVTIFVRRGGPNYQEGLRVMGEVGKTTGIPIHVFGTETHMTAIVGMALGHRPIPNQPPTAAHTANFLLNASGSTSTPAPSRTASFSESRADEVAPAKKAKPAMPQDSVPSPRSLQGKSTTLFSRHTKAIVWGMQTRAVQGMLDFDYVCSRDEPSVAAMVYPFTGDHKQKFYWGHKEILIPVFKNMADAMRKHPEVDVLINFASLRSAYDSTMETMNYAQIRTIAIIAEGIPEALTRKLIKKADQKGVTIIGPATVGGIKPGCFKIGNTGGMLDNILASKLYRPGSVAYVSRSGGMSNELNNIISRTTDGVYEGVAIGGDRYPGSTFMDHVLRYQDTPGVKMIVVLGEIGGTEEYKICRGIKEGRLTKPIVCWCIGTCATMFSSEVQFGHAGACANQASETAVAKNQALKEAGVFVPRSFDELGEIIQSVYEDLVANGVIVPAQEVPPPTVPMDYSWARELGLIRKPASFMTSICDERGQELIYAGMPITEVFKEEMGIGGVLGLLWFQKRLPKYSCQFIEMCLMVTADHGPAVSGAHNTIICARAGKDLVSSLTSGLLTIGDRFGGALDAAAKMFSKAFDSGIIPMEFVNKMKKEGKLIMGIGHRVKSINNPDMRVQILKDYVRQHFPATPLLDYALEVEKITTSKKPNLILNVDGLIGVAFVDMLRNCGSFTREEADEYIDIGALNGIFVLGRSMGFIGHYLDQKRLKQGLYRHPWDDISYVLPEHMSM

This assay has as its target ACL (Homo sapiens (Human), UniProt P53396). The assay is described as follows: ADP-Glo Assay. The conditions noted are these: 3 nM ACL, 15 μM ATP, 3 μM CoA, 300 μM Citrate. The class given is biochemical. How it is done: Example 28. ADP-Glo Assay
Compounds of the present invention were evaluated in an ADP-GLO assay as follows: a) Dilute cpd 1:3 in succession in DMSO by hand for each cpds for 12 pts b) Add 0.1 μL diluted cpd solution to assay plate, each dose with 2 replicates c) Centrifuge 1000 RPM for 1 min d) Add 5 μL ACL working solution to 384-well assay plate, centrifuge 1000 RPM for 1 min e) Incubate at 25° C. for 15 min f) Add 5 μL substrate working solution to initiate reaction g) Final ACL reaction concentrations: 3 nM ACL, 15 μM ATP, 3 μM CoA, 300 μM Citrate, 0.01% Brij35, 4 mM DTT, 1% DMSO; h) Reference final conc: 30 uM starting Conc, 3× dilution, 11+0 points. Test cpd conc: 30/100 uM starting Conc, 3× dilution, 11+0 points. i) Incubate at 25° C. for 60 min j) Add 10 μL ADP Glo reagent, centrifuge 1000 RPM for 1 min k) Incubate at 25° C. for 40 min l) Add 20 μL kinase detection reagent, centrifuge 1000 RPM for 1 min m) Incubate at 25° C. for 40 min n) Read on Envision for US LUM as RLU
Background: ADP-Glo turns the ADP formed in a reaction into a luminescent signal.
As usually defined, the IC50 is the concentration needed to halve the response being measured. Read a high IC50 as a need for much substance. Regarding `COc1ccc(Cn2cncc(-c3cc4cc(Cl)ccc4n3S(=O)(=O)c3cc(F)cc(F)c3O)c2=O)cc1` [I-136, 5-(5-chloro-1-((3,5-difluoro-2-hydroxyphenyl)sulfonyl)-1H-indol-2-yl)-3-(4-methoxybenzyl)pyrimidin-4(3H)-one], the IC50 is 0.5 to 20 µM.
The value for `N#Cc1ccc2c(c1)cc(C1CC1)n2S(=O)(=O)c1cc(F)cc(F)c1O` [I-82] was 0.5 to 20 µM.
`N#Cc1ccc2c(c1)cc(-c1cc3ccccc3s1)n2S(=O)(=O)c1cc(Br)cc(Cl)c1O` [I-161]: the half-maximal inhibitory concentration (IC50) was in the range of 0.5 to 20 µM.
Then `O=C(O)c1cccc(-c2cc3cc(Cl)ccc3n2S(=O)(=O)c2cc(Br)cc(Cl)c2O)c1` [I-44], with less than 0.5 µM; and `O=S(=O)(c1cc(Br)cc(Cl)c1O)n1c(C2CC2)cc2cc(Cl)ccc21` [I-41], with 0.5 to 20 µM.
Take `COC(=O)c1c(-c2ccccc2)c2cc(Cl)ccc2n1S(=O)(=O)c1cc(Cl)cc(Cl)c1` [I-120]: the IC50 was not below 20 µM.
Consider `O=S(=O)(c1cc(F)cc(F)c1O)n1c(-c2cccc[n+]2[O-])cc2cc(Cl)ccc21` [I-126], for which the IC50 was not below 20 µM.
Then `O=S(=O)(c1cc(Cl)cc(Cl)c1O)N1CCC1c1ccccc1F` (stereo not drawn) [I-12], with 0.5 to 20 µM; and `O=S(=O)(c1cc(Br)cc(Cl)c1O)n1c(-c2cc3ccccc3s2)cc2cc(Cl)ccc21` [I-144], with 0.5 to 20 µM; and `O=S(=O)(c1cc(F)cc(F)c1O)n1c(-c2cncs2)cc2cc(F)ccc21` [I-86], with 0.5 to 20 µM.
`O=S(=O)(c1cc(Cl)cc(Cl)c1O)N1CCC(Oc2ccccc2)CC1` [I-10] came in with an IC50 of 0.5 to 20 µM.
Then `O=C(c1cc(Cl)c(O)c(S(=O)(=O)n2c(-c3ccccc3)cc3cc(Cl)ccc32)c1)N1CCC1` [I-52, azetidin-1-yl(3-chloro-5-((5-chloro-2-phenyl-1H-indol-1-yl)sulfonyl)-4-hydroxyphenyl)methanone], with 0.5 to 20 µM; and `O=S(=O)(c1cccc(F)c1O)n1c(-c2ccccc2)cc2cc(Cl)ccc21` [I-112], with 0.5 to 20 µM; and `O=S(=O)(c1cc(Cl)cc(Cl)c1O)N1CCCCC1c1ccccc1` (stereo not drawn) [I-22], with 0.5 to 20 µM.
The value for `O=S(=O)(c1cc(Cl)cc(Cl)c1O)n1c(-c2cccc(OC(F)(F)F)c2)cc2cc(Cl)ccc21` [I-54] was 0.5 to 20 µM; that for `Cc1ccc(-c2cc3cc(Cl)ccc3n2S(=O)(=O)c2cc(F)cc(F)c2O)nn1` [I-96] was 0.5 to 20 µM.
For `COC(=O)c1ccc2c(c1)cc(-c1ccccc1)n2S(=O)(=O)c1cc(Br)cc(Cl)c1O` [I-53], the IC50 fell in the range of 0.5 to 20 µM.
Regarding `O=S(=O)(c1cc(Cl)cc(Cl)c1O)n1c(-c2ccc(OC(F)(F)F)cc2)cc2cc(Cl)ccc21` [I-32, 2,4-dichloro-6-((5-chloro-2-(4-(trifluoromethoxy)phenyl)-1H-indol-1-yl)sulfonyl)phenol], the IC50 fell in the range of 0.5 to 20 µM.
As to `N#Cc1ccc2c(c1)cc(-c1ccccc1)n2S(=O)(=O)c1cc(F)cc(F)c1O` [I-77], the half-maximal inhibitory concentration (IC50) fell in the range of 0.5 to 20 µM.
The value for `O=C(O)c1ccc(-c2cc3cc(Cl)ccc3n2S(=O)(=O)c2cc(Cl)cc(Cl)c2)cc1` [I-58] was 0.5 to 20 µM; that for `Cc1ccccc1-c1cc2cc(Cl)ccc2n1S(=O)(=O)c1cc(Br)cc(Cl)c1O` [I-35] was 0.5 to 20 µM.
Then `CC(C)(O)c1cc2cc(Cl)ccc2n1S(=O)(=O)c1cc(Br)cc(Cl)c1O` [I-39], with 0.5 to 20 µM; and `O=C(O)c1c(-c2ccccc2)c2cc(Cl)ccc2n1S(=O)(=O)c1cc(Cl)cc(Cl)c1` [I-104], with 0.5 to 20 µM; and `O=C(O)c1cc2c(cc1Cl)cc(-c1cncnc1)n2S(=O)(=O)c1cc(Br)cc(Cl)c1O` [I-157], with 0.5 to 20 µM.
Then `O=C(O)c1cccc2c1cc(-c1ccccc1)n2S(=O)(=O)c1cc(Cl)cc(Br)c1` [I-68], with 0.5 to 20 µM.
`N#Cc1ccc2c(c1)cc(-c1cncnc1)n2S(=O)(=O)c1cc(F)cc(F)c1O` [I-97] displayed a 50% inhibitory concentration (IC50) of 0.5 to 20 µM.
Then `Cc1cc2cc(Cl)c(C(=O)O)cc2n1S(=O)(=O)c1cc(Br)cc(Cl)c1O` [I-160], with 0.5 to 20 µM.
